In PMC8766848, “The Structural Basis of Babesia orientalis Lactate Dehydrogenase” (Frontiers in Cellular and Infection Microbiology, 2022) one finds Ki data, which are given here for one compound.

For this assay, the target named is T1, Babesia orientalis lactate dehydrogenase (BoLDH) (Babesia orientalis, UniProt A0A8X6EH37).
T1 construct: full-length ORF (330 residues), N-terminal His6 tag, recombinant rBoLDH
T1 sequence (A0A8X6EH37 1-330): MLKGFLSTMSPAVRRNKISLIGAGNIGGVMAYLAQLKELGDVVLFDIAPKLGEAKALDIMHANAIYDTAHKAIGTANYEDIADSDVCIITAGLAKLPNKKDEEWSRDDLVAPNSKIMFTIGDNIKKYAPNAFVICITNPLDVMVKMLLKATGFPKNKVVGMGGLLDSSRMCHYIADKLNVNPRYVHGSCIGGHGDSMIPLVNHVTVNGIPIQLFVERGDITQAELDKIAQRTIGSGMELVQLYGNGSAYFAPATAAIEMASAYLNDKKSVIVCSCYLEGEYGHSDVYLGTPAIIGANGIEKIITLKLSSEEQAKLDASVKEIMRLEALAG
The assay is described as follows: Michaelis-Menten inhibition kinetics, lactate to pyruvate, NADH absorbance at […] nm, […] gossypol. It is filed as biochemical.

`Cc1cc2c(C(C)C)c(O)c(O)c(C=O)c2c(O)c1-c1c(C)cc2c(C(C)C)c(O)c(O)c(C=O)c2c1O` [gossypol] came in with a Ki of 4.24 ± 0.25 µM.
